Reference: patent US20250098679A1, “HERBICIDAL PYRIDONE DERIVATIVES” (SYNGENTA CROP PROTECTION AG, priority 2021, published 2025)

Experiments:
Type in all cases: in vivo
Conditions in all cases: evaluated after 13 days
[1] = test system: Setaria faberi (SETFA); assay: Pre-emergence Test, Setaria faberi (SETFA)
[2] = test system: Setaria faberi (SETFA); assay: Post-emergence Test, Setaria faberi (SETFA); design: key to percentage damage caused to the plant, SETFA (five-point scale): 5=81-100%, 4=61-80%, 3=41-60%, 2=21-40%, 1=0-20% damage
In short: (§1)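 Pots sprayed with compound in acetone/water (50:50) with 0.5% Tween 20, at 1000 g/ha unless noted, glasshouse 24/16 °C, 14 h light, 65% humidity. Damage scored 13 days after spraying on a five-point scale (5=81-100% to 1=0-20%).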

[3] = test system: Amaranthus palmeri (AMAPA); assay: Pre-emergence Test, Amaranthus palmeri (AMAPA)
[4] = test system: Zea mays (ZEAMX); assay: Post-emergence Test, Zea mays (ZEAMX); design: key to percentage damage caused to the plant, ZEAMX (five-point scale): 5=81-100%, 4=61-80%, 3=41-60%, 2=21-40%, 1=0-20% damage
In short: as §1

[5] = test system: Echinochloa crus-galli (ECHCG); assay: Post-emergence Test, Echinochloa crus-galli (ECHCG); design: key to percentage damage caused to the plant, ECHCG (five-point scale): 5=81-100%, 4=61-80%, 3=41-60%, 2=21-40%, 1=0-20% damage
In short: as §1

[6] = test system: Zea mays (ZEAMX); assay: Pre-emergence Test, Zea mays (ZEAMX)
[7] = test system: Amaranthus palmeri (AMAPA); assay: Post-emergence Test, Amaranthus palmeri (AMAPA); design: key: 5=81-100%, 4=61-80%, 3=41-60%, 2=21-40%, 1=0-20% damage
In short: as §1

[8] = test system: Amaranthus retoflexus (AMARE); assay: Pre-emergence Test, Amaranthus retoflexus (AMARE)
[9] = test system: Ipomoea hederacea (IPOHE); assay: Post-emergence Test, Ipomoea hederacea (IPOHE); design: key to percentage damage caused to the plant, IPOHE (five-point scale): 5=81-100%, 4=61-80%, 3=41-60%, 2=21-40%, 1=0-20% damage
In short: as §1

[10] = test system: Amaranthus retoflexus (AMARE); assay: Post-emergence Test, Amaranthus retoflexus (AMARE); design: key to percentage damage caused to the plant, AMARE (five-point scale): 5=81-100%, 4=61-80%, 3=41-60%, 2=21-40%, 1=0-20% damage
In short: as §1

[11] = test system: Echinochloa crus-galli (ECHCG); assay: Pre-emergence Test, Echinochloa crus-galli (ECHCG)
[12] = test system: Ipomoea hederacea (IPOHE); assay: Pre-emergence Test, Ipomoea hederacea (IPOHE)

Row | SMILES | Pre-emergence Test SETFA, percentage damage caused to the plant (five-point scale) ([1]; 250 g/Ha (*)) | Pre-emergence Test SETFA, percentage damage caused to the plant (five-point scale) ([1]; 1000 g/ha) | percentage damage caused to the plant, SETFA (five-point scale) ([2]; 250 g/Ha) | percentage damage caused to the plant, SETFA (five-point scale) ([2]; 1000 g/ha) | Pre-emergence Test AMAPA, percentage damage caused to the plant (five-point scale) ([3]; 250 g/Ha (*)) | Pre-emergence Test AMAPA, percentage damage caused to the plant (five-point scale) ([3]; 1000 g/ha) | percentage damage caused to the plant, ZEAMX (five-point scale) ([4]; 250 g/Ha) | percentage damage caused to the plant, ZEAMX (five-point scale) ([4]; 1000 g/ha) | percentage damage caused to the plant, ECHCG (five-point scale) ([5]; 250 g/Ha) | percentage damage caused to the plant, ECHCG (five-point scale) ([5]; 1000 g/ha) | Pre-emergence Test ZEAMX, percentage damage caused to the plant (five-point scale) ([6]; 1000 g/ha) | percentage damage caused to the plant, AMAPA (five-point scale) ([7]; 250 g/Ha) | Pre-emergence Test AMARE, percentage damage caused to the plant (five-point scale) ([8]; 1000 g/ha) | percentage damage caused to the plant, IPOHE (five-point scale) ([9]; 250 g/Ha) | percentage damage caused to the plant, IPOHE (five-point scale) ([9]; 1000 g/ha) | percentage damage caused to the plant, AMARE (five-point scale) ([10]; 250 g/Ha) | percentage damage caused to the plant, AMARE (five-point scale) ([10]; 1000 g/ha) | Pre-emergence Test ECHCG, percentage damage caused to the plant (five-point scale) ([11]; 1000 g/ha) | Pre-emergence Test IPOHE, percentage damage caused to the plant (five-point scale) ([12]; 1000 g/ha) | percentage damage caused to the plant, AMAPA (five-point scale) ([7]; 1000 g/ha) | other results
1 | CCn1c(Cn2nccc2C#N)cc(=O)c(C(=O)O)c1-c1ccc(Cl)c(Cl)c1 [Compound 176, 6-[(5-cyanopyrazol-1-yl)methyl]-2-(3,4-dichlorophenyl)-1-ethyl-4-oxo-pyridine-3-carboxylic acid] | 4 (4=61-80%) | 4 (4=61-80%) | 2 (2=21-40%) | 4 (4=61-80%) | 1 (1=0-20%) | 2 (2=21-40%) | 0 | 1 (1=0-20%) | 2 (2=21-40%) | 4 (4=61-80%) | 0 | 0 | 0 | 2 (2=21-40%) | 3 (3=41-60%) | 0 | 3 (3=41-60%) | 4 (4=61-80%) | 1 (1=0-20%) |  | Pre-emergence Test ZEAMX, percentage damage caused to the plant (five-point scale) ([6]; 250 g/Ha (*)): 0; Pre-emergence Test AMARE, percentage damage caused to the plant (five-point scale) ([8]; 250 g/Ha (*)): 0; Pre-emergence Test ECHCG, percentage damage caused to the plant (five-point scale) ([11]; 250 g/Ha (*)): 2 (2=21-40%); Pre-emergence Test IPOHE, percentage damage caused to the plant (five-point scale) ([12]; 250 g/Ha (*)): 0
2 | CCn1c(Cn2ccc(Cl)n2)cc(=O)c(C(=O)O)c1-c1ccc(F)c(Cl)c1 [Compound 28, 2-(3-chloro-4-fluoro-phenyl)-6-[(3-chloropyrazol-1-yl)methyl]-1-ethyl-4-oxo-pyridine-3-carboxylic acid] |  | 5 (5=81-100%) | 4 (4=61-80%) | 4 (4=61-80%) |  | 0 | 0 | 4 (4=61-80%) | 3 (3=41-60%) | 4 (4=61-80%) | 0 | 1 (1=0-20%) | 0 | 4 (4=61-80%) | 1 (1=0-20%) | 1 (1=0-20%) | 0 | 5 (5=81-100%) | 1 (1=0-20%) | 2 (2=21-40%) | 
3 | CCn1c(Cn2nc(Cl)cc2Cl)cc(=O)c(C(=O)O)c1-c1ccc(Cl)c(Cl)c1 [Compound 134, 2-(3,4-dichlorophenyl)-6-[(3,5-dichloropyrazol-1-yl)methyl]-1-ethyl-4-oxo-pyridine-3-carboxylic acid] | 5 (5=81-100%) | 5 (5=81-100%) | 4 (4=61-80%) | 4 (4=61-80%) | 2 (2=21-40%) | 4 (4=61-80%) | 2 (2=21-40%) | 3 (3=41-60%) | 3 (3=41-60%) | 4 (4=61-80%) | 4 (4=61-80%) | 1 (1=0-20%) | 2 (2=21-40%) | 4 (4=61-80%) | 3 (3=41-60%) | 2 (2=21-40%) | 4 (4=61-80%) | 5 (5=81-100%) | 4 (4=61-80%) | 4 (4=61-80%) | Pre-emergence Test ZEAMX, percentage damage caused to the plant (five-point scale) ([6]; 250 g/Ha (*)): 0; Pre-emergence Test AMARE, percentage damage caused to the plant (five-point scale) ([8]; 250 g/Ha (*)): 1 (1=0-20%); Pre-emergence Test ECHCG, percentage damage caused to the plant (five-point scale) ([11]; 250 g/Ha (*)): 4 (4=61-80%); Pre-emergence Test IPOHE, percentage damage caused to the plant (five-point scale) ([12]; 250 g/Ha (*)): 1 (1=0-20%)
4 | CCn1c(Cn2ccc(C(F)(F)F)n2)c(Br)c(=O)c(C(=O)O)c1-c1ccc(Cl)c(Cl)c1 [Compound 18, 5-bromo-2-(3,4-dichlorophenyl)-1-ethyl-4-oxo-6-[[3-(trifluoromethyl)pyrazol-1-yl]methyl]pyridine-3-carboxylic acid] |  | 2 (2=21-40%) | 1 (1=0-20%) | 3 (3=41-60%) |  | 0 | 1 (1=0-20%) | 2 (2=21-40%) | 1 (1=0-20%) | 3 (3=41-60%) | 0 | 0 | 0 | 1 (1=0-20%) | 1 (1=0-20%) | 1 (1=0-20%) | 1 (1=0-20%) | 1 (1=0-20%) | 0 | 2 (2=21-40%) | 
5 | CCn1c(Cn2nc(C)cc2C)cc(=O)c(C(=O)O)c1-c1ccc(Cl)c(Cl)c1 [Compound 39, 2-(3,4-dichlorophenyl)-6-[(3,5-dimethylpyrazol-1-yl)methyl]-1-ethyl-4-oxo-pyridine-3-carboxylic acid] |  | 3 (3=41-60%) | 1 (1=0-20%) | 4 (4=61-80%) |  | 1 (1=0-20%) | 0 | 4 (4=61-80%) | 3 (3=41-60%) | 4 (4=61-80%) | 0 | 1 (1=0-20%) | 1 (1=0-20%) | 2 (2=21-40%) | 2 (2=21-40%) | 2 (2=21-40%) | 2 (2=21-40%) | 4 (4=61-80%) | 2 (2=21-40%) | 2 (2=21-40%) | 
